Several values for one entry are separate records, joined by “and”; a condition that tells them apart may be missing. Equal values may be shown once. Some results are limits rather than exact numbers.

Test [1] addresses Glycogen synthase kinase-3 beta (Homo sapiens, UniProt P49841). Put plainly: TR-FRET Assay. Put shortly:
(§1)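 Signal is measured as TR-FRET between a terbium anti-phospho-Ser641 antibody and streptavidin-d2, added after an EDTA quench. Compounds are preincubated 30 min in assay buffer.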

Test [2] addresses Glycogen synthase kinase-3 alpha (Homo sapiens, UniProt P49840). The experiment in a line: TR-FRET Assay. Put shortly:
as §1

Chain of Glycogen synthase kinase-3 beta (P49841 whole entry): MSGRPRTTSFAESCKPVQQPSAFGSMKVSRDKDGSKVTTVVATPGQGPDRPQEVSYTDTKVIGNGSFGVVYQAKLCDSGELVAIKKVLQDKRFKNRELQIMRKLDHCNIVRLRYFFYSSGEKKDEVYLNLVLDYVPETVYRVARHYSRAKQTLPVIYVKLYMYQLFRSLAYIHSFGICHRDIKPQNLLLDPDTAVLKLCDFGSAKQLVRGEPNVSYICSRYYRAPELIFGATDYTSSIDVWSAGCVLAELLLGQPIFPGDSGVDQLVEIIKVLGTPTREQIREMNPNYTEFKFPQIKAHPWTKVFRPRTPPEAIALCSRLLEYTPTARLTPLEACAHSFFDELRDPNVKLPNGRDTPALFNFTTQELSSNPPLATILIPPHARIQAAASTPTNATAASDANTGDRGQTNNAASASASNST
Chain of Glycogen synthase kinase-3 alpha (P49840 whole entry): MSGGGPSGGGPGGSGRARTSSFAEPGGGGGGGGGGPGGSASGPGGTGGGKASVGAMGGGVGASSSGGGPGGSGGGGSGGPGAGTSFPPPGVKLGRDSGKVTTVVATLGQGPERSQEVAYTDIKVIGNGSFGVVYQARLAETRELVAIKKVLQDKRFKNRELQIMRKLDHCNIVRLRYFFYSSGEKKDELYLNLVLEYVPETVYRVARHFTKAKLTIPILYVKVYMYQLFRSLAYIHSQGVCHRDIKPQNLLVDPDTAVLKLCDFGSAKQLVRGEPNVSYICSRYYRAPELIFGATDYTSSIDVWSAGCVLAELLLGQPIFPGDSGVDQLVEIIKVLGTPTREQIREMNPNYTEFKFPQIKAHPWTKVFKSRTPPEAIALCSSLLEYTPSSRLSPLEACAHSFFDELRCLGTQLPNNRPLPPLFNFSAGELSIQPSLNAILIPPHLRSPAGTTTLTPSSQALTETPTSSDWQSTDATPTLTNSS

Usually IC50 stands for the midpoint of a concentration-inhibition curve. Regarding `CC(=O)N1CC[C@@]2(C1)C1=C(N=NC1)NC1=C2C(=O)CC(C)(C)C1` [US20250313563, Compound 889584], the IC50 in test [1] lay in the range of 1000 to 5000 nM; in test [2], 100 to 1000 nM.
For `CC1(C)CC(=O)C2=C(C1)NC1=C(CN=N1)C21CN(S(=O)(=O)CC2CC2)C1` [US20250313563, Compound 929440], in that order: less than 100 nM and less than 100 nM.
Take `CC1(C)CC(=O)C2=C(C1)NC1=C(CN=N1)C21CCN(S(=O)(=O)C2=CC=C3CC=CC=C3N2)CC1` [US20250313563, Compound 947476]: the 50% inhibitory concentration (IC50) in test [1] and in test [2] was less than 100 nM each time.
On to `CC[C@]1(c2cccc(N3CCCC3)c2)C2=C(CC(C)(C)CC2=O)NC2N=NC(C(F)(F)F)=C21` (some centres not stated) [US20250313563, Compound 819574], for which the concentration for half-maximal inhibition (IC50) in test [1] and in test [2] was less than 100 nM in each case.
`CC1(C)CC(=O)C2=C(C1)NC1=C(CN=N1)[C@@]21CCOC2(CCOCC2)C1` [US20250313563, Compound 924306]: the half-maximal inhibitory concentration (IC50) in test [1] and in test [2] was 100 to 1000 nM each time.
In the case of `CC1(C)CC(=O)C2=C(NC3=C(CN=N3)[C@]23CC[C@@H](C(F)(F)F)CC3)[C@H]1F` [US20250313563, Compound 918285], the concentration for half-maximal inhibition (IC50) is 100 to 1000 nM and > 5000 nM in test [1]; < 100 nM and 1000 to 5000 nM in test [2].
With `CC[C@]1(c2cccc(-c3ccncc3)c2)C2=C(CC(C)(C)CC2=O)NC2N=NC(C)=C21` (some centres not stated) [US20250313563, Compound 913054], the figures for the IC50 in test [1] and in test [2] were 1000 to 5000 nM and 100 to 1000 nM, respectively.
For `CC1(C)CC(=O)C2=C(C1)NC1=C(CN=N1)[C@]21CCOC(C)(C)C1` [US20250313563, Compound 924298], in that order: 1000 to 5000 nM and 1000 to 5000 nM.
Taken in the same sequence, the figures for `CCC1(c2cccc(N3C[C@H](C)C[C@H](C)C3)c2)C2=CN=NC2NC2=C1C(=O)CC(C)(C)C2` (some centres not stated) [US20250313563, Compound 885237] were 1000 to 5000 nM and 100 to 1000 nM.
With `C[C@@H]1C[C@@]2(CCN1S(=O)(=O)c1ccn(C)n1)C1=C(N=NC1)NC1=C2C(=O)CC(C)(C)C1` [US20250313563, Compound 917160], the IC50 in test [1] and in test [2] was 100 to 1000 nM each time.
`CC[C@]1(c2cccc(-c3cn(C)nc3C)c2)C2=C(CC(C)(C)CC2=O)NC2N=NC(C)=C21` (some centres not stated) [US20250313563, Compound 913035]: the 50% inhibitory concentration (IC50) in test [1] is < 100 nM and 100 to 1000 nM; in test [2], less than 100 nM.
Consider `CC[C@@]1(c2cccc(Cc3ncccc3C(F)(F)F)c2)C2=CN=NC2NC2=C1C(=O)CC(C)(C)C2` (some centres not stated) [US20250313563, Compound 947665], for which the values for the IC50 in test [1] and in test [2] were more than 5000 nM and 1000 to 5000 nM, respectively.
For `CC[C@@]1(c2cccc(-c3cnn(CCOC)c3)c2)C2=CN=NC2NC2=C1C(=O)NC(C)(C)C2` (some centres not stated) [US20250313563, Compound 949105], in that order: 100 to 1000 nM and less than 100 nM.
For `CC[C@@]1(c2cccc(C)c2)C2=CN=NC2NC2=C1C(=O)CC(C)(C)C2` (some centres not stated) [US20250313563, Compound 789561], the IC50 in test [1] is more than 5000 nM; in test [2], 1000 to 5000 nM.
`CC[C@@]1(c2cccc(-c3ccncc3C)c2)C2=C(CC(C)(C)NC2=O)NC2N=NC(C)=C21` (some centres not stated) [US20250313563, Compound 947414]: the half-maximal inhibitory concentration (IC50) in test [1] is < 100 nM and 1000 to 5000 nM; in test [2] it was < 100 nM and 100 to 1000 nM.
As for `CC[C@@]1(c2cccc(N3CCOCC3)c2)C2=CN=NC2NC2=C1C(=O)CC(C)(C)C2` (some centres not stated) [US20250313563, Compound 810363], the IC50 in test [1] and in test [2] was 100 to 1000 nM throughout.
Consider `CCC1(c2cccc(C(F)F)c2)C2=C(CC(C)(C)NC2=O)NC2N=NC(C)=C21` (configuration not stated) [US20250313563, Compound 947865], for which the half-maximal inhibitory concentration (IC50) in test [1] and in test [2] was less than 100 nM each time.
On to `CC1(C)CC(=O)C2=C(C1)NC1N=NC(CC(F)(F)F)=C1C21CCc2c(F)cccc21` (configuration not stated) [US20250313563, Compound 810590], for which the IC50 in test [1] and in test [2] was 100 to 1000 nM throughout.
`CC[C@@]1(c2cc(-c3ccncc3)ccc2F)C2=CN=NC2NC2=C1C(=O)CC(C)(C)C2` (some centres not stated) [US20250313563, Compound 893324]: the half-inhibitory concentration (IC50) is more than 5000 nM in test [1] and 1000 to 5000 nM in test [2].
For `CCC1(c2cccc(-c3cnn(C)c3)c2)C2=C(CC(C)(C)CC2=O)NC2N=NC(C)=C21` (configuration not stated) [US20250313563, Compound 884000], in that order: 100 to 1000 nM and less than 100 nM.
On to `CC[C@@]1(c2ccccc2)C2=C(CC(C)(C)CC2=O)NC2N=NC(Br)=C21` (some centres not stated) [US20250313563, Compound 792340], for which the IC50 in test [1] was < 100 nM and 100 to 1000 nM; in test [2] it was < 100 nM and 100 to 1000 nM.
For `C[C@H]1CC(=O)C2=C(C1)NC1=C(CN=N1)[C@]2(C)c1ccccc1` [US20250313563, Compound 789332], the half-inhibitory concentration (IC50) in test [1] and in test [2] was 100 to 1000 nM throughout.
Take `CC[C@@]1(c2cccc(C(F)(F)F)c2)C2=CN=NC2NC2=C1C(=O)CC(C)(C)C2` (some centres not stated) [US20250313563, Compound 790755]: the results for the IC50 in test [1] and in test [2] were more than 1700 nM and 100 to 1000 nM, respectively.
With `CC[C@]1(c2cccc(-c3cnn4c3CCCC4)c2)C2=CN=NC2NC2=C1C(=O)CC(C)(C)C2` (some centres not stated) [US20250313563, Compound 945543], the IC50 in test [1] fell in the range of 1000 to 5000 nM; in test [2], 100 to 1000 nM.
For `CC[C@@]1(c2cccc(C3=C4CC=CC(C)=C4N=CC3)c2)C2=CN=NC2NC2=C1C(=O)NC(C)(C)C2` (some centres not stated) [US20250313563, Compound 952909], in that order: 100 to 1000 nM and less than 100 nM.
Taken in the same sequence, the figures for `CC[C@]1(c2cccc(-c3ccnc4ccc(Cl)cc34)c2)C2=CN=NC2NC2=C1C(=O)NC(C)(C)C2` (some centres not stated) [US20250313563, Compound 948530] were 1000 to 5000 nM and 100 to 1000 nM.
In the case of `CC[C@@]1(c2cccc(C(F)(F)F)c2)C2=CN=NC2NC2=C1C(=O)N(c1cnsc1)CC2` (some centres not stated) [US20250313563, Compound 951742], the IC50 fell in the range of 1000 to 5000 nM in test [1] and 100 to 1000 nM in test [2].
With `CC[C@@]1(c2cccc(-c3ccnc4c3cnn4C)c2)C2=CN=NC2NC2=C1C(=O)NC(C)(C)C2` (some centres not stated) [US20250313563, Compound 952913], the values for the IC50 in test [1] and in test [2] were 100 to 1000 nM and less than 100 nM, respectively.
As to `CC[C@@]1(c2ccccc2)C2=CN=NC2NC2=C1C(=O)C[C@H](c1ccccc1)C2` (some centres not stated) [US20250313563, Compound 791264], the figures for the IC50 in test [1] and in test [2] were more than 5000 nM and 100 to 1000 nM, respectively.
Taken in the same sequence, the figures for `CC[C@]1(c2cccc(-c3ccnc4c3CCC4)c2)C2=CN=NC2NC2=C1C(=O)CC(C)(C)C2` (some centres not stated) [US20250313563, Compound 945619] were more than 5000 nM and 1000 to 5000 nM.
Taken in the same sequence, the figures for `COc1cncc(F)c1-c1cccc([C@@]2(C)C3=C(CC(C)(C)CC3=O)NC3=C2C(CC(C)(C)C)N=N3)c1` (some centres not stated) [US20250313563, Compound 108956] were 1000 to 5000 nM and more than 5000 nM.
For `CC[C@]1(c2cccc(-c3cncn3C)c2)C2=C(CC(C)(C)NC2=O)NC2N=NC(C(F)(F)F)=C21` (some centres not stated) [US20250313563, Compound 949003], in that order: 100 to 1000 nM and 100 to 1000 nM.
Consider `CCc1cc(-c2cccc([C@@]3(CC)C4=CN=NC4NC4=C3C(=O)NC(C)(C)C4)c2)ccn1` (some centres not stated) [US20250313563, Compound 948360], for which the half-maximal inhibitory concentration (IC50) in test [1] was more than 5000 nM; in test [2], 1000 to 5000 nM.
Taken in the same sequence, the figures for `CC1(C)CC(=O)C2=C(NC3=C(CN=N3)C23CCCCC3)[C@@H]1F` [US20250313563, Compound 951705] were less than 100 nM and less than 100 nM.
For the compound `CC[C@@]1(c2cccc(-c3ccccc3)c2)C2=CN=NC2NC2=C1C(=O)CC(C)(C)C2` (some centres not stated) [US20250313563, Compound 801368], the half-maximal inhibitory concentration (IC50) in test [1] is 100 to 1000 nM; in test [2], less than 100 nM.
Taken in the same sequence, the figures for `CC1(C)CC(=O)C2=C(C1)NC1=C(CN=N1)C2(C)C` [US20250313563, Compound 786065] were more than 1670 nM and 1000 to 5000 nM.
Regarding `CC1(C)CC(=O)C2=C(C1)NC1N=NC=C1[C@]21CCOC2(CCCC2)C1` (some centres not stated) [US20250313563, Compound 907327], the IC50 in test [1] was in the range of 1000 to 5000 nM; in test [2], 100 to 1000 nM.
With `CC1(C)CC(=O)C2=C(C1)NC1=C(CN=N1)C21CCN(S(=O)(=O)C2CC2)CC1` [US20250313563, Compound 901470], the IC50 in test [1] was < 100 nM and 100 to 1000 nM; in test [2], < 100 nM and 100 to 1000 nM.
As to `CC[C@]1(c2cccc(-c3ccnc(N(C)C)c3)c2)C2=C(CC(C)(C)CC2=O)NC2N=NC(C)=C21` (some centres not stated) [US20250313563, Compound 913048], the IC50 in test [1] was in the range of 1000 to 5000 nM; in test [2], 100 to 1000 nM.
Take `CC[C@@]1(c2cccc(-c3ccnc4c3CCC4)c2)C2=CN=NC2NC2=C1C(=O)CC(C)(C)C2` (some centres not stated) [US20250313563, Compound 945606]: the IC50 was 100 to 1000 nM and 1000 to 5000 nM in test [1]; 100 to 1000 nM in test [2].
As for `CC[C@]1(c2cccc(C(C)C)c2)C2=C(CC(C)(C)NC2=O)NC2N=NC(C(F)(F)F)=C21` (some centres not stated) [US20250313563, Compound 950493], the 50% inhibitory concentration (IC50) in test [1] and in test [2] was 100 to 1000 nM each time.
As for `CC[C@]1(c2cccc(-c3cc(C)nnc3C)c2)C2=C(CC(C)(C)NC2=O)NC2N=NC(C(F)(F)F)=C21` (some centres not stated) [US20250313563, Compound 949917], the IC50 in test [1] and in test [2] was less than 100 nM each time.
Turning to `CC[C@@]1(c2cccc(-c3cc(C)nnc3C)c2)C2=C(CC(C)(C)NC2=O)NC2N=NC(C)=C21` (some centres not stated) [US20250313563, Compound 949333], the IC50 in test [1] is 100 to 1000 nM; in test [2] it was less than 100 nM.
For `CC1(C)CC(=O)C2=C(C1)NC1=C(CN=N1)C21COC2(CCC2)C1` (configuration not stated) [US20250313563, Compound 911973], in that order: 100 to 1000 nM and 100 to 1000 nM.
Take `CCC1(c2cccc(C(F)(F)F)c2)C2=C(N=NC2)NC2=C1C(=O)N(Cc1ccccc1)C2C` (configuration not stated) [US20250313563, Compound 917162]: the half-inhibitory concentration (IC50) is 100 to 1000 nM in test [1] and less than 100 nM in test [2].
For `CC[C@]1(c2ccccc2)C2=CN=NC2NC2=C1C(=O)C[C@]1(CCN(C)C1=O)C2` (some centres not stated) [US20250313563, Compound 949760], in that order: more than 5000 nM and 100 to 1000 nM.

The record behind these values is BindingDB's records for patent US20250313563 (The Broad Institute, 2025).
